# Structures can show the parent of a compound that is named as a salt.
# Tested on: hDMFa myofibroblast cells
row,Compound,Compound Myofibroblast Cytotoxicity Activity
1,"O=c1ccc2[n+]([O-])c3ccc(O)cc3oc-2c1 [Cmpd 827, Resazurin sodium salt]",++
2,"Oc1ccc(C=Cc2cc(O)cc(O)c2)cc1 [Cmpd 829, Resveratrol]",++
3,"CCCCCCCCCCCCCCCC(=O)OC/C=C(C)/C=C/C=C(C)/C=C/C1=C(C)CCCC1(C)C [Cmpd 830, Retinyl (Vitamin A) Palmitate]",++
4,"CO[C@H]1/C=C/O[C@@]2(C)Oc3c(C)c(O)c4c(O)c(cc(O)c4c3C2=O)NC(=O)/C(C)=C\C=C\[C@H](C)[C@H](O)[C@@H](C)[C@@H](O)[C@@H](C)[C@H](OC(C)=O)[C@@H]1C [Cmpd 833, Rifamycin sodium salt]",++
5,"CO[C@H]1/C=C/O[C@@]2(C)Oc3c(C)c(O)c4c(O)c(c(/C=N/N5CCN(C6CCCC6)CC5)c(O)c4c3C2=O)NC(=O)/C(C)=C\C=C\[C@H](C)[C@H](O)[C@@H](C)[C@@H](O)[C@@H](C)[C@H](OC(C)=O)[C@@H]1C [Cmpd 834, Rifapentine]",+++
6,"N=C(N/N=C/c1ccc(Cl)cc1)N/N=C/c1ccc(Cl)cc1 [Cmpd 838, Robenidine hydrochloride]",++
7,"C/C=C1\NC(=O)[C@H]2CSSCC/C=C/[C@H](CC(=O)N[C@H](C(C)C)C(=O)N2)OC(=O)[C@H](C(C)C)NC1=O [Cmpd 839, Romidepsin (FK228,depsipeptide)]",++
8,"CCCN1CCCC[C@H]1C(=O)Nc1c(C)cccc1C.CS(=O)(=O)O [Cmpd 840, Ropivacaine Mesilate]",++
9,"CN(C(=O)c1c(O)c2ccccc2n(C)c1=O)c1ccccc1 [Cmpd 841, Roquinimex]",++
10,"CC(C)c1nc(N(C)S(C)(=O)=O)nc(-c2ccc(F)cc2)c1/C=C/[C@@H](O)C[C@@H](O)CC(=O)[O-].CC(C)c1nc(N(C)S(C)(=O)=O)nc(-c2ccc(F)cc2)c1/C=C/[C@@H](O)C[C@@H](O)CC(=O)[O-].[Ca+2] [Cmpd 842, Rosuvastatin Calcium]",+++
11,"NC(=O)c1cn(Cc2c(F)cccc2F)nn1 [Cmpd 843, Rufinamide]",+++
12,"Cc1cncc(CN2CCC(=C3c4ccc(Cl)cc4CCc4cccnc43)CC2)c1.O=C(O)/C=C/C(=O)O [Cmpd 844, Rupatadine Fumarate]",+++
13,"C[C@H]1O[C@@H](O[C@H]2CC[C@@]3(C)[C@@H](CC[C@]4(C)[C@@H]3C=C[C@]35OC[C@@]6(CCC(C)(C)C[C@H]63)[C@@H](O)C[C@]54C)[C@]2(C)CO)[C@H](O)[C@@H](O[C@@H]2O[C@H](CO)[C@@H](O)[C@H](O)[C@H]2O)[C@H]1O [Cmpd 846, Saikosaponin A]",+++++
14,"CC(C)(C)NCC(O)c1ccc(O)c(CO)c1 (stereo not drawn) [Cmpd 847, Salbutamol]",++
15,"OCc1cc(C(O)CNCCCCCCOCCCCc2ccccc2)ccc1O (stereo not drawn) [Cmpd 849, Salmeterol xinafoate]",+++
16,"C[n+]1cc2c3c(ccc2c2ccc4cc5c(cc4c21)OCO5)OCO3 [Cmpd 850, Sanguinarine]",+++++
17,"C[n+]1cc2c3c(ccc2c2ccc4cc5c(cc4c21)OCO5)OCO3 [Cmpd 851, Sanguinarine chloride]",++++
18,"CC(C)(C)NC(=O)[C@@H]1C[C@@H]2CCCC[C@@H]2CN1C[C@@H](O)[C@H](Cc1ccccc1)NC(=O)[C@H](CC(N)=O)NC(=O)c1ccc2ccccc2n1 [Cmpd 852, Saquinavir mesylate]",++++
19,"N#C[C@@H]1C[C@@H]2C[C@@H]2N1C(=O)[C@@H](N)C12CC3CC(CC(O)(C3)C1)C2 [Cmpd 854, Saxagliptin hydrate]",++
20,"COc1cc2ccc(=O)oc2cc1O [Cmpd 857, Scopoletin]",++
21,"O=C(O)CCCCCCCCC(=O)O.O=C(O)CCCCCCCCC(=O)O [Cmpd 858, sebacate (decanedioate)]",++

row,Compound,Compound Myofibroblast Cytotoxicity Activity
1,"Clc1ccc(C(Cn2ccnc2)OCc2csc3c(Cl)cccc23)c(Cl)c1 (stereo not drawn) [Cmpd 860, Sertaconazole nitrate]",+++++
2,"CN[C@H]1CC[C@@H](c2ccc(Cl)c(Cl)c2)c2ccccc21 [Cmpd 861, Sertraline HCl]",++++
3,"CCCc1nn(C)c2c(=O)[nH]c(-c3cc(S(=O)(=O)N4CCN(C)CC4)ccc3OCC)nc12.CS(=O)(=O)O [Cmpd 862, Sildenafil mesylate]",++
4,"CC(C)(C)C(=O)Oc1ccc(S(=O)(=O)Nc2ccccc2C(=O)NCC(=O)O)cc1 [Cmpd 866, Sivelestat (ONO-5046)]",++
5,"O=C([O-])c1ccccc1.[Na+] [Cmpd 870, Sodium benzoate]",++++
6,"CCCCCCCCCCCCOS(=O)(=O)O [Cmpd 871, Sodium dodecyl sulfate]",+++++
7,"O=P([O-])([O-])O.[Na+].[Na+] [Cmpd 874, Sodium phosphate dibasic]",++++
8,"C[C@H](CCC(=O)NCCS(=O)(=O)[O-])[C@H]1CC[C@H]2[C@@H]3[C@@H](O)C[C@@H]4C[C@H](O)CC[C@]4(C)[C@H]3CC[C@]12C.[Na+] [Cmpd 877, Sodium Tauroursodeoxycholate (TUDC)]",++
9,"C/C=C/C=C/C(=O)O [Cmpd 881, Sorbic acid]",++
10,"OC[C@@H](O)[C@@H](O)[C@H](O)[C@@H](O)CO [Cmpd 882, Sorbitol]",++++
11,"CC(C)NCC(O)c1ccc(NS(C)(=O)=O)cc1 (stereo not drawn) [Cmpd 883, Sotalol hydrochloride]",+++
12,"CN1CCN(c2nc(C3=C(c4c[nH]c5ccccc45)C(=O)NC3=O)c3ccccc3n2)CC1 [Cmpd 884, Sotrastaurin (AEB071)]",++
13,"CN[C@@H]1[C@H](O)[C@H](NC)[C@H]2O[C@@]3(O)C(=O)C[C@@H](C)O[C@H]3O[C@@H]2[C@H]1O [Cmpd 885, Spectinomycin (hydrochloride hydrate)]",+++
14,"NCCCNCCCCNCCCN [Cmpd 887, Spermine]",++
15,"CCCCCCCCCCCCCCCCCC(=O)O [Cmpd 889, Stearic Acid]",+++
16,"O=C(O)CCC(=O)Nc1ccc(S(=O)(=O)Nc2nccs2)cc1 [Cmpd 891, Succinylsulfathiazole]",++
17,"Nc1ccc(S(=O)(=O)NC(=O)c2ccccc2)cc1 [Cmpd 893, Sulfabenzamide]",++
18,"CC(=O)NS(=O)(=O)c1ccc(N)cc1 [Cmpd 894, Sulfacetamide sodium salt hydrate]",++
19,"Cc1ccnc(NS(=O)(=O)c2ccc(N)cc2)n1 [Cmpd 895, Sulfamerazine]",+++
20,"Cc1nnc(NS(=O)(=O)c2ccc(N)cc2)s1 [Cmpd 896, Sulfamethizole]",++++
21,"Nc1ccc(S(N)(=O)=O)cc1 [Cmpd 898, Sulfanilamide]",++++
